# Test results: patent publication US10231954B2, “Neurodegenerative therapies” (LYTIX BIOPHARMA AS, priority 2014, dated 2019)
# Like-named read-outs stand apart in the source and are kept apart here.
# Columns and labels:
# Assay type in all cases: biochemical
# EF2K = EF2K (Homo sapiens, UniProt O00418); test: Kinase profiling EF2K; settings: for remaining activity at 100 µM: read-out: residual kinase activity, EF2K
# From the text: (§1) Any value less that 25 is considered to be highly significant inhibition.
# RSK2 = RSK2 (Homo sapiens, UniProt P51812); test: Kinase profiling RSK2; settings: for remaining activity at 100 µM: read-out: residual kinase activity, RSK2
# From the text: as §1
# TAK1 = molecular target: T1, TAK1 (Homo sapiens, UniProt O43318); test: Kinase profiling TAK1; settings: for remaining activity at 100 µM: read-out: residual kinase activity, TAK1
# T1 sequence (O43318 1-303 limits assumed): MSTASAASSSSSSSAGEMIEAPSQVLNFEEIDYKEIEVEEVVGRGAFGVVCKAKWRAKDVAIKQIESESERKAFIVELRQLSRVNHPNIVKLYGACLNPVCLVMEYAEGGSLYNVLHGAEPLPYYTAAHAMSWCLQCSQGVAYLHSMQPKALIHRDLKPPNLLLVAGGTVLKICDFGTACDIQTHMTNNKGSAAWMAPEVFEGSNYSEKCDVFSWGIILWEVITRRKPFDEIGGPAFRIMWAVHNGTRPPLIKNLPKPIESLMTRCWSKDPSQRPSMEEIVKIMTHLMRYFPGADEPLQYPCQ
# T1 sequence (Q15750 437-504 partner limits assumed): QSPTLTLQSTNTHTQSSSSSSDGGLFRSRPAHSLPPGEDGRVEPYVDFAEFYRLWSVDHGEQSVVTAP
# From the text: as §1
# SYK = SYK (Homo sapiens, UniProt P43405); test: Kinase profiling SYK; settings: for remaining activity at 100 µM: read-out: residual kinase activity, SYK
# From the text: as §1
# NEK6 = NEK6 (Homo sapiens, UniProt Q9HC98); test: Kinase profiling NEK6; settings: for remaining activity at 100 µM: read-out: residual kinase activity, NEK6
# From the text: as §1
# HER4 = HER4 (Homo sapiens, UniProt Q15303); test: Kinase profiling HER4; settings: for remaining activity at 100 µM: read-out: residual kinase activity, HER4
# From the text: as §1
# PIM1 = PIM1 (Homo sapiens, UniProt P11309); test: Kinase profiling PIM1; settings: for remaining activity at 100 µM: read-out: residual kinase activity, PIM1
# From the text: as §1
# PKBb = PKBb (Homo sapiens, UniProt P31751); test: Kinase profiling PKBb; settings: for residual kinase activity, PKBb: 100 micromolar inhibitor concentration, 100 is no change; for remaining activity at 100 µM: read-out: residual kinase activity, PKBb
# From the text: as §1
# MLK3 = MLK3 (Homo sapiens, UniProt Q16584); test: Kinase profiling MLK3; settings: for remaining activity at 100 µM: read-out: residual kinase activity, MLK3
# From the text: as §1
# MST2 = molecular target: T2, MST2 (Homo sapiens, UniProt Q13188); test: Kinase profiling MST2; settings: for remaining activity at 100 µM: read-out: residual kinase activity, MST2
# T2 sequence (Q13188 1-491): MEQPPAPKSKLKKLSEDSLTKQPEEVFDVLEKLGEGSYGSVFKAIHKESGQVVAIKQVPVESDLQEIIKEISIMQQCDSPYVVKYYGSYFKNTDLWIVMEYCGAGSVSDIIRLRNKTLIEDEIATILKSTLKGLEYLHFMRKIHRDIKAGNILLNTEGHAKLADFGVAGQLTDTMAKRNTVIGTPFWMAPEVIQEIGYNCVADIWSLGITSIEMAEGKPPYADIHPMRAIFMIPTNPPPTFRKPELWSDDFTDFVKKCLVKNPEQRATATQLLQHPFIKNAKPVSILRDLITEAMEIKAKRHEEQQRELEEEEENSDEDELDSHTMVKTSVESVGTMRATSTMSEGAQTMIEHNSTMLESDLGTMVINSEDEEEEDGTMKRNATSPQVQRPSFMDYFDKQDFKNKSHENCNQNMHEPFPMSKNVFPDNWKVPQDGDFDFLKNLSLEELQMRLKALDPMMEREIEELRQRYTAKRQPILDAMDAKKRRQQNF
# From the text: as §1
# CHK2 = CHK2 (Homo sapiens, UniProt O96017); test: Kinase profiling CHK2; settings: for remaining activity at 100 µM: read-out: residual kinase activity, CHK2
# From the text: as §1
# ERK2 = ERK2 (Homo sapiens, UniProt P28482); test: Kinase profiling ERK2; settings: for remaining activity at 100 µM: read-out: residual kinase activity, ERK2
# From the text: as §1
# RSK1 = RSK1 (Homo sapiens, UniProt Q15418); test: Kinase profiling RSK1; settings: for remaining activity at 100 µM: read-out: residual kinase activity, RSK1
# From the text: as §1
# PKCz = molecular target: T3, PKCz (Homo sapiens, UniProt Q05513); test: Kinase profiling PKCz; settings: for remaining activity at 100 µM: read-out: residual kinase activity, PKCz
# T3 sequence (Q05513 1-592): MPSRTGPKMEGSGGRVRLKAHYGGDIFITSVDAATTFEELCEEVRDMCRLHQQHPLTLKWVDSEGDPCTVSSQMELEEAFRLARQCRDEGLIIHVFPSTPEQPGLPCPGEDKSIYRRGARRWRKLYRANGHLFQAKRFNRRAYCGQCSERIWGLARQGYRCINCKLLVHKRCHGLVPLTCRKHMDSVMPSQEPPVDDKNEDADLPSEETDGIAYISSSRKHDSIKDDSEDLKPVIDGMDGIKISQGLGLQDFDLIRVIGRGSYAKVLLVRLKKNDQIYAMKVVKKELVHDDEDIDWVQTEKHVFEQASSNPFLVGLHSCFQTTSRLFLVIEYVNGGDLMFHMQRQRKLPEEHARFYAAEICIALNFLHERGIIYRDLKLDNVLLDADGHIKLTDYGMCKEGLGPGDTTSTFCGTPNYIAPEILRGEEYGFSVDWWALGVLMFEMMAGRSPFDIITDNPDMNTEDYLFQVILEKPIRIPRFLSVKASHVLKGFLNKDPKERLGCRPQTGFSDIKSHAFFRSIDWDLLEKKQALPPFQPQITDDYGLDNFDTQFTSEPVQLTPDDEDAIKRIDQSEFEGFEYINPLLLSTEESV
# From the text: as §1
# [1] = 100 micromolar inhibitor concentration, 100 is no change
# Chain of NEK6 (Q9HC98 whole entry, species assumed): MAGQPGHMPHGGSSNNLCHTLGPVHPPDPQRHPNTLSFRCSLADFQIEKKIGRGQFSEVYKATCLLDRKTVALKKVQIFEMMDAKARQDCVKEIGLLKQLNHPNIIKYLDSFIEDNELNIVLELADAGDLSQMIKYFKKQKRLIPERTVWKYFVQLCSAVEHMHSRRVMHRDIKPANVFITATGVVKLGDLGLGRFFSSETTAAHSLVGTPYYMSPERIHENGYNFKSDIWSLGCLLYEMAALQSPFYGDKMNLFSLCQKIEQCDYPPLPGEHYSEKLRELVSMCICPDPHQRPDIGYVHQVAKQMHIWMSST
# Chain of PKBb (P31751 whole entry): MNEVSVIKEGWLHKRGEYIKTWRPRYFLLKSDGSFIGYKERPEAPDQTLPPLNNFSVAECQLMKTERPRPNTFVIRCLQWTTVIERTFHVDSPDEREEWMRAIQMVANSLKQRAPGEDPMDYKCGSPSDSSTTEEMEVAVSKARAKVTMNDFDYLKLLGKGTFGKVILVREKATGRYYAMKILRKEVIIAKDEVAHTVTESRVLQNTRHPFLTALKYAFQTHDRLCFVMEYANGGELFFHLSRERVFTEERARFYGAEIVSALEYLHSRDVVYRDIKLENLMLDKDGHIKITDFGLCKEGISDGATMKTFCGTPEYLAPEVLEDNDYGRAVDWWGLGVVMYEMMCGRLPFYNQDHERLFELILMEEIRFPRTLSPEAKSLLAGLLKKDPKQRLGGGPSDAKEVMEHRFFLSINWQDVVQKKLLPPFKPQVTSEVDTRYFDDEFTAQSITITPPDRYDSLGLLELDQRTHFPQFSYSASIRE
# Chain of MLK3 (Q16584 whole entry, species assumed): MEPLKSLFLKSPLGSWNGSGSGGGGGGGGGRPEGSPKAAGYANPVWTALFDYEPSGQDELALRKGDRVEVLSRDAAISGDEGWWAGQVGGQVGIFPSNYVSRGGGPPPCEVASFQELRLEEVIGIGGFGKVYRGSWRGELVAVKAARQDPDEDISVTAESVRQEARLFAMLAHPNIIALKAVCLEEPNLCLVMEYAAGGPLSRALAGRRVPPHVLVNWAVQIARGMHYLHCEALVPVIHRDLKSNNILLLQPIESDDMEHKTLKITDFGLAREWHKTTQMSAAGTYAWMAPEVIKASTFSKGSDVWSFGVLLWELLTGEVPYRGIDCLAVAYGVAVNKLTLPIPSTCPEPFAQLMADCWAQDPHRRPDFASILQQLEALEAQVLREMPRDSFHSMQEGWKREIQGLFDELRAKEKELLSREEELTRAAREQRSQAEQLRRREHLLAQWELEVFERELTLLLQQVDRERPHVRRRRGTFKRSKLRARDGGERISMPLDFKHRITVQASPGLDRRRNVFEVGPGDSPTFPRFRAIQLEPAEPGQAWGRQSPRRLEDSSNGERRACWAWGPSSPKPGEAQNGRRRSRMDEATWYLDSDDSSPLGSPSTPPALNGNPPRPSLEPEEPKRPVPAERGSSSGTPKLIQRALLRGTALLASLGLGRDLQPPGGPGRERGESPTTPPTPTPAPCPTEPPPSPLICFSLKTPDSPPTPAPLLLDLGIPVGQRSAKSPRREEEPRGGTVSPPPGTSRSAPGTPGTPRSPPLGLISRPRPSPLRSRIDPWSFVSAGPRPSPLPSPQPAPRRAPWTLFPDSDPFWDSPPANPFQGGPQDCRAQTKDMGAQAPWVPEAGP
# Chain of ERK2 (P28482 whole entry, species assumed): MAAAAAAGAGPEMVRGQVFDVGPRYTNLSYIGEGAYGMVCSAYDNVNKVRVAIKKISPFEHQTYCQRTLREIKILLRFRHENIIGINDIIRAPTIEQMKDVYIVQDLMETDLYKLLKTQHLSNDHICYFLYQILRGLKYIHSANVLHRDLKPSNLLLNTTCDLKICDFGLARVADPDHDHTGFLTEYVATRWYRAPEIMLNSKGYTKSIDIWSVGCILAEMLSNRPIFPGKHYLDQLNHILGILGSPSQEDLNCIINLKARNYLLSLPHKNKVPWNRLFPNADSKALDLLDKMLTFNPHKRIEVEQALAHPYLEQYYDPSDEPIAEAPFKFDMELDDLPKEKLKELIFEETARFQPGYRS
# Chain of HER4 (Q15303 26-1308, species assumed): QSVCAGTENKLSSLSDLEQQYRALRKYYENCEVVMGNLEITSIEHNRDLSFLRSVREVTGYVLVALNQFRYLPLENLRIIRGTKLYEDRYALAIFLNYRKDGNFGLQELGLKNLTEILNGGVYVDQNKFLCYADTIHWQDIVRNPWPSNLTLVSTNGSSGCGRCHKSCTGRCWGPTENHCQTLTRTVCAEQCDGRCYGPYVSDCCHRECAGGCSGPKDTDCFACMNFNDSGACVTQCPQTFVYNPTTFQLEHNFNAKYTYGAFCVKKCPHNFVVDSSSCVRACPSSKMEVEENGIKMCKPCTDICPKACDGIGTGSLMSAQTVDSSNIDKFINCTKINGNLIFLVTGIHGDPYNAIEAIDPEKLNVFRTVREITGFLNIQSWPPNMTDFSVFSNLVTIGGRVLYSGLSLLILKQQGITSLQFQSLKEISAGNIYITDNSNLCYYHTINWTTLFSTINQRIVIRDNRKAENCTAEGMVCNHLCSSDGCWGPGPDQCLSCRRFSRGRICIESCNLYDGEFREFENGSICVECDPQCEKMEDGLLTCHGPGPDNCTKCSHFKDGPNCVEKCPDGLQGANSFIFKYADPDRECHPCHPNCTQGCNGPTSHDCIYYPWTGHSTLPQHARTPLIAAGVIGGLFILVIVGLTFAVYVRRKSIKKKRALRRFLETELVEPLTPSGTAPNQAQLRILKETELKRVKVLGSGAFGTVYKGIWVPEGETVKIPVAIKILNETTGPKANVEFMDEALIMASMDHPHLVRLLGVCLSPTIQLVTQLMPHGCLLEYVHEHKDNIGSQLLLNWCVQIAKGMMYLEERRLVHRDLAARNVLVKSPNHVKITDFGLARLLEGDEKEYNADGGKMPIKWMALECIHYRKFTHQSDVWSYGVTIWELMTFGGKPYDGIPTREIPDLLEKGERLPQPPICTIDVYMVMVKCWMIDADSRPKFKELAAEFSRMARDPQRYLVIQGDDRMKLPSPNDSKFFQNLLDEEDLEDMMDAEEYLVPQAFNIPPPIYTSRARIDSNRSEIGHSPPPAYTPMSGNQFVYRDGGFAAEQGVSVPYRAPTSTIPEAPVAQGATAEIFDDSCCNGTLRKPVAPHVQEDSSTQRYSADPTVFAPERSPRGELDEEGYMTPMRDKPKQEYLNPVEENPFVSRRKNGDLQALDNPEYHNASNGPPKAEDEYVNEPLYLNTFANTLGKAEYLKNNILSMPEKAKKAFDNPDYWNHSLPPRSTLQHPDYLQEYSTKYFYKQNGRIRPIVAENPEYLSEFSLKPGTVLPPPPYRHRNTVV
# Chain of RSK1 (Q15418 whole entry, species assumed): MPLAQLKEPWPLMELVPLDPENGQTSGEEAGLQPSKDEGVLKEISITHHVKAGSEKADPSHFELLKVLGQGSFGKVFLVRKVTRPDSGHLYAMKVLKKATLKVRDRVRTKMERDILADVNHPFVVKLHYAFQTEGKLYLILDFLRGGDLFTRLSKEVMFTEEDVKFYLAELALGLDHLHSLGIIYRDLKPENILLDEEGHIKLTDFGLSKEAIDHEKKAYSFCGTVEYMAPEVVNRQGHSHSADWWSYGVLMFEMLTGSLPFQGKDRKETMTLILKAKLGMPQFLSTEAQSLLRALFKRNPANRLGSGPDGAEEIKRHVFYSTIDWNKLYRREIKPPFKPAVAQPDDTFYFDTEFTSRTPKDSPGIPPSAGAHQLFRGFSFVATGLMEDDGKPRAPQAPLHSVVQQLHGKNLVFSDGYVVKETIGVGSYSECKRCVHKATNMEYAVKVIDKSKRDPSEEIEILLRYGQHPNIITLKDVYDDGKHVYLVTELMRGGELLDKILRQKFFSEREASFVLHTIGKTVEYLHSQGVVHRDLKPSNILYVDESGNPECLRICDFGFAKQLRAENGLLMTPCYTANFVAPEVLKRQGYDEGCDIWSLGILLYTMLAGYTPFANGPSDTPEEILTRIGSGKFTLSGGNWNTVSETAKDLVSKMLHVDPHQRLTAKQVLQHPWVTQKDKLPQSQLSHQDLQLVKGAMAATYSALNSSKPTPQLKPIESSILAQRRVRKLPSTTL
# Chain of RSK2 (P51812 whole entry, species assumed): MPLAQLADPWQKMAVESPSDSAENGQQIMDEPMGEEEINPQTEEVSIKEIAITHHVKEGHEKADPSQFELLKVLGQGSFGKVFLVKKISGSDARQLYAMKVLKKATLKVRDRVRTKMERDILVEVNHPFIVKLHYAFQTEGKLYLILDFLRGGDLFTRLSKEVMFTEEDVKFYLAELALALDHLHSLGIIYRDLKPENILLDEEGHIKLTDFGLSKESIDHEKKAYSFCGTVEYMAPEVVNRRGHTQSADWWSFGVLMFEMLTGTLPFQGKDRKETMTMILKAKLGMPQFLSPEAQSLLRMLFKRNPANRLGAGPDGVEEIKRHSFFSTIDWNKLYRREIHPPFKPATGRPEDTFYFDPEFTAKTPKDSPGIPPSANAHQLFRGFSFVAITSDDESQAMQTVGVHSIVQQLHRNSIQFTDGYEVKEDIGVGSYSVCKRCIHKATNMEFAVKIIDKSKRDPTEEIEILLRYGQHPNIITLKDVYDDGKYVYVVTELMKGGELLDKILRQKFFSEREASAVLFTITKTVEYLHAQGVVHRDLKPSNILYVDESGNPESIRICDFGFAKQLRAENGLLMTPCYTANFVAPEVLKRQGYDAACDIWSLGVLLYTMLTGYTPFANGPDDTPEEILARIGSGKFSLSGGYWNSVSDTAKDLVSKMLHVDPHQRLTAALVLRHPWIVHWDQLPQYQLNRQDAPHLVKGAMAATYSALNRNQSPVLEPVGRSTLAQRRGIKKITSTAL
smiles,measurement,setting,value
O=C(Nc1nc2cc(O)ccc2s1)c1ccncc1 [Compound 03-11],"residual kinase activity, EF2K",EF2K; [1],79
same,"residual kinase activity, RSK2",RSK2; [1],71
same,"residual kinase activity, TAK1",TAK1; [1],55
same,"residual kinase activity, SYK",SYK; [1],75
same,"residual kinase activity, NEK6",NEK6; [1],72
same,"residual kinase activity, HER4",HER4; [1],96
same,"residual kinase activity, PIM1",PIM1; [1],74
same,"residual kinase activity, PKBb",PKBb,82
same,"residual kinase activity, MLK3",MLK3; [1],95
same,"residual kinase activity, MST2",MST2; [1],84
same,"residual kinase activity, CHK2",CHK2; [1],93
same,"residual kinase activity, ERK2",ERK2; [1],85
same,"residual kinase activity, RSK1",RSK1; [1],83
same,"residual kinase activity, PKCz",PKCz; [1],86
CC(=O)Nc1nc2cc(C)ccc2s1 [Compound 03-76],"residual kinase activity, EF2K",EF2K; [1],110
same,"residual kinase activity, RSK2",RSK2; [1],96
same,"residual kinase activity, TAK1",TAK1; [1],52
same,"residual kinase activity, SYK",SYK; [1],72
same,"residual kinase activity, NEK6",NEK6; [1],107
same,"residual kinase activity, HER4",HER4; [1],85
same,"residual kinase activity, PIM1",PIM1; [1],21
same,"residual kinase activity, PKBb",PKBb,91
same,"residual kinase activity, MLK3",MLK3; [1],35
same,"residual kinase activity, MST2",MST2; [1],75
same,"residual kinase activity, CHK2",CHK2; [1],65
same,"residual kinase activity, ERK2",ERK2; [1],96
same,"residual kinase activity, RSK1",RSK1; [1],78
same,"residual kinase activity, PKCz",PKCz; [1],101
"CC(=O)Nc1nc2cc(O)ccc2s1 [Compound 01-66, N-(5-hydroxybenzo[d]thiazol-2-yl)acetamide]",remaining activity at 100 µM,EF2K,76%
same,remaining activity at 100 µM,RSK2,66%
same,remaining activity at 100 µM,TAK1,30%
same,remaining activity at 100 µM,SYK,82%
same,remaining activity at 100 µM,NEK6,82%
same,remaining activity at 100 µM,HER4,40%
same,remaining activity at 100 µM,PIM1,12%
same,remaining activity at 100 µM,PKBb,55%
same,remaining activity at 100 µM,MLK3,41%
same,remaining activity at 100 µM,MST2,69%
same,remaining activity at 100 µM,CHK2,31%
same,remaining activity at 100 µM,ERK2,104%
same,remaining activity at 100 µM,RSK1,44%
same,remaining activity at 100 µM,PKCz,98%
CC(=O)Nc1nc2ccc(C(F)(F)F)cc2s1 [Compound 01-90],remaining activity at 100 µM,EF2K; [1],103%
same,remaining activity at 100 µM,RSK2; [1],92%
same,remaining activity at 100 µM,TAK1; [1],83%
same,remaining activity at 100 µM,SYK; [1],100%
same,remaining activity at 100 µM,NEK6; [1],107%
same,remaining activity at 100 µM,HER4; [1],97%
same,remaining activity at 100 µM,PIM1; [1],71%
same,remaining activity at 100 µM,PKBb,100%
same,remaining activity at 100 µM,MLK3; [1],51%
same,remaining activity at 100 µM,MST2; [1],99%
same,remaining activity at 100 µM,CHK2; [1],43%
same,remaining activity at 100 µM,ERK2; [1],102%
same,remaining activity at 100 µM,RSK1; [1],74%
same,remaining activity at 100 µM,PKCz; [1],81%
CC(=O)Nc1nc2ccc(O)cc2s1 [Compound 01-71],remaining activity at 100 µM,EF2K; [1],75%
same,remaining activity at 100 µM,RSK2; [1],48%
same,remaining activity at 100 µM,TAK1; [1],11%
same,remaining activity at 100 µM,SYK; [1],71%
same,remaining activity at 100 µM,NEK6; [1],75%
same,remaining activity at 100 µM,HER4; [1],36%
same,remaining activity at 100 µM,PIM1; [1],19%
same,remaining activity at 100 µM,PKBb,57%
same,remaining activity at 100 µM,MLK3; [1],15%
same,remaining activity at 100 µM,MST2; [1],56%
same,remaining activity at 100 µM,CHK2; [1],17%
same,remaining activity at 100 µM,ERK2; [1],83%
same,remaining activity at 100 µM,RSK1; [1],25%
same,remaining activity at 100 µM,PKCz; [1],74%
COc1ccc2sc(NC(=O)c3cccc(NC(C)=O)c3)nc2c1 [MS:LY-2-85],"residual kinase activity, RSK2",RSK2; [1],32
same,"residual kinase activity, PKBb",PKBb,22
same,"residual kinase activity, ERK2",ERK2; [1],98
same,"residual kinase activity, RSK1",RSK1; [1],54
same,"residual kinase activity, PKCz",PKCz; [1],101
O=C(Nc1nc2ccc(O)cc2s1)c1ccccc1 [Compound 03-60],"residual kinase activity, EF2K",EF2K; [1],107
same,"residual kinase activity, RSK2",RSK2; [1],34
same,"residual kinase activity, TAK1",TAK1; [1],9
same,"residual kinase activity, SYK",SYK; [1],64
same,"residual kinase activity, NEK6",NEK6; [1],97
same,"residual kinase activity, HER4",HER4; [1],16
same,"residual kinase activity, PIM1",PIM1; [1],35
same,"residual kinase activity, PKBb",PKBb,86
same,"residual kinase activity, MLK3",MLK3; [1],5
same,"residual kinase activity, MST2",MST2; [1],40
same,"residual kinase activity, CHK2",CHK2; [1],5
same,"residual kinase activity, ERK2",ERK2; [1],82
same,"residual kinase activity, RSK1",RSK1; [1],28
same,"residual kinase activity, PKCz",PKCz; [1],80
CC(=O)Nc1ccccc1C(=O)Nc1nc2ccc(O)cc2s1 [Compound 08-39],"residual kinase activity, RSK2",RSK2; [1],2
same,"residual kinase activity, PKBb",PKBb,4
same,"residual kinase activity, ERK2",ERK2; [1],68
same,"residual kinase activity, RSK1",RSK1; [1],30
same,"residual kinase activity, PKCz",PKCz; [1],38
COc1ccc2sc(NC(=O)c3ccc(NC(C)=O)cc3)nc2c1 [MS:LY-2-77],"residual kinase activity, RSK2",RSK2; [1],81
same,"residual kinase activity, PKBb",PKBb,44
same,"residual kinase activity, ERK2",ERK2; [1],105
same,"residual kinase activity, RSK1",RSK1; [1],85
same,"residual kinase activity, PKCz",PKCz; [1],107
CC(=O)Nc1cccc(C(=O)Nc2nc3ccc(O)cc3s2)c1 [Compound 03-58],"residual kinase activity, RSK2",RSK2; [1],51
same,"residual kinase activity, PKBb",PKBb,80
same,"residual kinase activity, ERK2",ERK2; [1],104
same,"residual kinase activity, RSK1",RSK1; [1],35
same,"residual kinase activity, PKCz",PKCz; [1],84
CC(=O)NC(C)C(=O)Nc1nc2ccc(C(F)(F)F)cc2s1 (centres unmarked) [Compound 03-80],"residual kinase activity, RSK2",RSK2; [1],66
same,"residual kinase activity, PKBb",PKBb,93
same,"residual kinase activity, ERK2",ERK2; [1],101
same,"residual kinase activity, RSK1",RSK1; [1],90
same,"residual kinase activity, PKCz",PKCz; [1],75
CC(=O)Nc1ccc(C(=O)Nc2nc3cc(O)ccc3s2)cc1 [MS:LY-2-87],"residual kinase activity, RSK2",RSK2; [1],28
same,"residual kinase activity, PKBb",PKBb,18
same,"residual kinase activity, ERK2",ERK2; [1],81
same,"residual kinase activity, RSK1",RSK1; [1],29
same,"residual kinase activity, PKCz",PKCz; [1],83
CC(=O)Nc1cccc(C(=O)Nc2nc3cc(O)ccc3s2)c1 [MS:LY-2-89],"residual kinase activity, RSK2",RSK2; [1],8
same,"residual kinase activity, PKBb",PKBb,7
same,"residual kinase activity, ERK2",ERK2; [1],68
same,"residual kinase activity, RSK1",RSK1; [1],13
same,"residual kinase activity, PKCz",PKCz; [1],80
